Experimental data as given in patent US8269000B2, “Substituted pyrimidine and triazine compounds” (Gruenenthal GmbH, priority 2008, dated 2012).

Target: T1, rat B1R (Rattus norvegicus, UniProt P97583)
T1 construct: expressed in transfected cells; host or cells: CHO K1 cells
T1 sequence (P97583 1-337): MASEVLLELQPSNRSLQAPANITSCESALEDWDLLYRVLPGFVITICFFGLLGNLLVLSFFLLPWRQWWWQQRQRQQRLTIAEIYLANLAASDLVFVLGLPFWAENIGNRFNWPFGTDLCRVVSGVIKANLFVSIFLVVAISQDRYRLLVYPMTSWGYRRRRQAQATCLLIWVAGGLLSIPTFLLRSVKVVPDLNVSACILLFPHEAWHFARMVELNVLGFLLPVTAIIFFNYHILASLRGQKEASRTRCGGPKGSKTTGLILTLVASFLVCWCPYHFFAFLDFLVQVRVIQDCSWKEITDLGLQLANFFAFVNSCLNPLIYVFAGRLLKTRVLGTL
Assay: FLIPR Ca2+ functional study on bradykinin receptor 1 (rB1R CHO K1 cells)
Assay type: cell-based
Conditions: % inhibition rat B1R at 10 μM
Summary of the method: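 CHO K1 cells stably expressing human or rat B1R were loaded with Fluo-4 and read on FLIPR (ex 488/em 540 nm, peak counts). Test compound (10 μM, or a concentration range for IC50) was added first for % activation versus control agonist; after 10-20 min, EC80 Lys-Des-Arg9-bradykinin (human) or Des-Arg9-bradykinin (rat) was added, giving % inhibition of maximum. n=2-3, N≥2.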

% inh. (rat B1R) 10 μM [%] | Structure (SMILES)
53 | COc1cc(C)c(S(=O)(=O)N2CC(Oc3ccnc(N(C)CCN4CCC(c5ccccc5)(N5CCCC5)CC4)n3)C2)c(C)c1 [H_CC-070]

Same assay, conditions: CHO-K1, % inhibition rat B1R at 10 μM, read-out: % inh. (rat B1R) 10 μM

inhibition at 10 µM [%] | Structure (SMILES)
59 | COc1cc(C)c(S(=O)(=O)N2CC(Oc3ccnc(N(C)CCCN4CCC(c5ccccc5)(N(C)C)CC4)n3)C2)c(C)c1 [H_CC-074, 3-(4-dimethylamino-4-phenyl-piperidin-1-yl)-propyl-[4-[1-[(4-methoxy-2,6-dimethyl-phenyl)sulfonyl]-azetidin-3-yl]oxy-pyrimidin-2-yl]-methyl-amine]
75 | COc1cc(C)c(S(=O)(=O)N2c3ccccc3C[C@H]2COc2ccnc(N(C)CCCN3CCC(c4ccccc4)(N(C)C)CC3)n2)c(C)c1 [H_CC-075, 3-(4-dimethylamino-4-phenyl-piperidin-1-yl)-propyl-[4-[[(2S)-1-[(4-methoxy-2,6-dimethyl-phenyl)sulfonyl]-2,3-dihydro-1H-indol-2-yl]-methoxy]-pyrimidin-2-yl]-methyl-amine]
69 | COc1cc(C)c(S(=O)(=O)N2CC(Oc3ccnc(N4CCC(O)(c5cccnc5)CC4)n3)C2)c(C)c1 [H_CC-076, 1-[4-[1-[(4-methoxy-2,6-dimethyl-phenyl)sulfonyl]-azetidin-3-yl]oxy-pyrimidin-2-yl]-4-pyridin-3-yl-piperidin-4-ol]
58 | COc1cc(C)c(S(=O)(=O)N2CC(Oc3ccnc(N4CCCN(Cc5ccccn5)CC4)n3)C2)c(C)c1 [H_CC-077, 1-[4-[1-[(4-methoxy-2,6-dimethyl-phenyl)sulfonyl]-azetidin-3-yl]oxy-pyrimidin-2-yl]-4-(pyridin-2-yl-methyl)-[1,4]diazepan]
77 | COc1cc(C)c(S(=O)(=O)N2CCCCC2COc2ccnc(N3CCCC3Cc3ccccn3)n2)c(C)c1 (stereo not shown) [H_CC-078, 4-[[1-[(4-methoxy-2,6-dimethyl-phenyl)sulfonyl]-piperidin-2-yl]-methoxy]-2-[2-(pyridin-2-yl-methyl)-pyrrolidin-1-yl]-pyrimidine]
73 | COc1cc(C)c(S(=O)(=O)N2CCCCC2COc2ccnc(N3CCC(Oc4ccccn4)CC3)n2)c(C)c1 (stereo not shown) [H_CC-079, 4-[[1-[(4-methoxy-2,6-dimethyl-phenyl)sulfonyl]-piperidin-2-yl]-methoxy]-2-(4-pyridin-2-yloxy-piperidin-1-yl)-pyrimidine]
61 | COc1cc(C)c(S(=O)(=O)N2CCCCC2COc2ccnc(N3CCC(C)(N4CCOCC4)CC3)n2)c(C)c1 (stereo not shown) [H_CC-081, 4-[1-[4-[[1-[(4-methoxy-2,6-dimethyl-phenyl)sulfonyl]-piperidin-2-yl]-methoxy]-pyrimidin-2-yl]-4-methyl-piperidin-4-yl]-morpholine]
72 | COc1cc(C)c(S(=O)(=O)N2CCCCC2COc2ccnc(N3CCC(CCCN4CCCC4)(c4cccnc4)CC3)n2)c(C)c1 (stereo not shown) [H_CC-082, 4-[[1-[(4-methoxy-2,6-dimethyl-phenyl)sulfonyl]-piperidin-2-yl]-methoxy]-2-[4-pyridin-3-yl-4-(3-pyrrolidin-1-yl-propyl)piperidin-1-yl]-pyrimidine]
59 | COc1cc(C)c(S(=O)(=O)N2CCCCC2COc2ccnc(N3CCC(O)(c4ccccn4)CC3)n2)c(C)c1 (stereo not shown) [H_CC-083, 1-[4-[[1-[(4-methoxy-2,6-dimethyl-phenyl)sulfonyl]-piperidin-2-yl]-methoxy]-pyrimidin-2-yl]-4-pyridin-2-yl-piperidin-4-ol]
55 | COc1cc(C)c(S(=O)(=O)N2CCC[C@@H]2COc2ccnc(N3CCCC3Cc3ccccn3)n2)c(C)c1 (stereo partly drawn) [H_CC-084, 4-[[(2R)-1-[(4-methoxy-2,6-dimethyl-phenyl)sulfonyl]-pyrrolidin-2-yl]-methoxy]-2-[2-(pyridin-2-yl-methyl)-pyrrolidin-1-yl]-pyrimidine]
70 | COc1cc(C)c(S(=O)(=O)N2CCC[C@H]2COc2ccnc(N3CCC(c4ccccc4)(N(C)C)CC3)n2)c(C)c1 [H_CC-085, [1-[4-[[(2S)-1-[(4-methoxy-2,6-dimethyl-phenyl)sulfonyl]-pyrrolidin-2-yl]-methoxy]-pyrimidin-2-yl]-4-phenyl-piperidin-4-yl]-dimethyl-amine]
66 | COc1cc(C)c(S(=O)(=O)N2CCC[C@H]2COc2ccnc(N3CCC(c4cccs4)(N(C)C)CC3)n2)c(C)c1 [H_CC-086, [1-[4-[[(2S)-1-[(4-methoxy-2,6-dimethyl-phenyl)sulfonyl]-pyrrolidin-2-yl]-methoxy]-pyrimidin-2-yl]-4-thiophen-2-yl-piperidin-4-yl]-dimethyl-amine]
57 | COc1cc(C)c(S(=O)(=O)N(C)CCOc2ccnc(N3CCCC3Cc3ccccn3)n2)c(C)c1 (stereo not shown) [H_CC-087, 4-methoxy-N,2,6-trimethyl-N-[2-[2-[2-(pyridin-2-yl-methyl)-pyrrolidin-1-yl]-pyrimidin-4-yl]oxy-ethyl]-benzenesulfonic acid amide]
67 | COc1cc(C)c(S(=O)(=O)N2CCC[C@H]2COc2ccnc(N3CCCC3Cc3ccccn3)n2)c(C)c1 (stereo partly drawn) [H_CC-088, 4-[[(2S)-1-[(4-methoxy-2,6-dimethyl-phenyl)sulfonyl]-pyrrolidin-2-yl]-methoxy]-2-[2-(pyridin-2-yl-methyl)-pyrrolidin-1-yl]-pyrimidine]

More lines, now with the values behind:

Structure (SMILES) | inhibition at 10 µM [%]
COc1cc(C)c(S(=O)(=O)N2CCCCC2COc2ccnc(N(C)CCN3CCC(c4ccccc4)(N4CCCC4)CC3)n2)c(C)c1 (stereo not shown) [H_CC-063, [4-[[1-[(4-methoxy-2,6-dimethyl-phenyl)sulfonyl]-piperidin-2-yl]-methoxy]-pyrimidin-2-yl]-methyl-[2-(4-phenyl-4-pyrrolidin-1-yl-piperidin-1-yl)-ethyl]-amine] | 82
COc1cc(C)c(S(=O)(=O)N2CCCC(Oc3ccnc(N4CCC(c5ccccc5)(N(C)C)CC4)n3)C2)c(C)c1 (stereo not shown) [H_CC-064, [1-[4-[1-[(4-methoxy-2,6-dimethyl-phenyl)sulfonyl]-piperidin-3-yl]oxy-pyrimidin-2-yl]-4-phenyl-piperidin-4-yl]-dimethyl-amine] | 61
COc1cc(C)c(S(=O)(=O)N2CCCC(Oc3ccnc(N(C)CCN4CCC(c5ccccc5)(N(C)C)CC4)n3)C2)c(C)c1 (stereo not shown) [H_CC-065, 2-(4-dimethylamino-4-phenyl-piperidin-1-yl)-ethyl-[4-[1-[(4-methoxy-2,6-dimethyl-phenyl)sulfonyl]-piperidin-3-yl]oxy-pyrimidin-2-yl]-methyl-amine] | 52
COc1cc(C)c(S(=O)(=O)N2CCCC(Oc3ccnc(N(C)CCN4CCC(c5ccccc5)(N5CCCC5)CC4)n3)C2)c(C)c1 (stereo not shown) [H_CC-066, [4-[1-[(4-methoxy-2,6-dimethyl-phenyl)sulfonyl]-piperidin-3-yl]oxy-pyrimidin-2-yl]-methyl-[2-(4-phenyl-4-pyrrolidin-1-yl-piperidin-1-yl)-ethyl]amine] | 56
COc1cc(C)c(S(=O)(=O)N(C)CCOc2ccnc(N(C)CCN3CCC(c4ccccc4)(N(C)C)CC3)n2)c(C)c1 [H_CC-067, N-[2-[2-[2-(4-dimethylamino-4-phenyl-piperidin-1-yl)-ethyl-methyl-amino]-pyrimidin-4-yl]oxy-ethyl]-4-methoxy-N,2,6-trimethyl-benzenesulfonic acid amide] | 59
CCCCC1(N(C)C)CCN(c2nccc(OC[C@@H]3CCCN3S(=O)(=O)c3c(C)cc(OC)cc3C)n2)CC1 [H_CC-068, [4-butyl-1-[4-[[(2S)-1-[(4-methoxy-2,6-dimethyl-phenyl)sulfonyl]-pyrrolidin-2-yl]-methoxy]-pyrimidin-2-yl]-piperidin-4-yl]-dimethyl-amine] | 65
COc1cc(C)c(S(=O)(=O)N2CC(Oc3ccnc(N(C)CCN4CCC(c5ccccc5)(N(C)C)CC4)n3)C2)c(C)c1 [H_CC-069, 2-(4-dimethylamino-4-phenyl-piperidin-1-yl)-ethyl-[4-[1-[(4-methoxy-2,6-dimethyl-phenyl)sulfonyl]-azetidin-3-yl]oxy-pyrimidin-2-yl]-methyl-amine] | 52
CCCCC1(N(C)C)CCN(CCN(C)c2nccc(OC3CN(S(=O)(=O)c4c(C)cc(OC)cc4C)C3)n2)CC1 [H_CC-071, 2-(4-butyl-4-dimethylamino-piperidin-1-yl)-ethyl-[4-[1-[(4-methoxy-2,6-dimethyl-phenyl)sulfonyl]-azetidin-3-yl]oxy-pyrimidin-2-yl]-methyl-amine] | 55
COc1cc(C)c(S(=O)(=O)N2c3ccccc3C[C@H]2COc2ccnc(N(C)CCN3CCC(c4ccccc4)(N4CCCC4)CC3)n2)c(C)c1 [H_CC-072, [4-[[(2S)-1-[(4-methoxy-2,6-dimethyl-phenyl)sulfonyl]-2,3-dihydro-1H-indol-2-yl]-methoxy]-pyrimidin-2-yl]-methyl-[2-(4-phenyl-4-pyrrolidin-1-yl-piperidin-1-yl)-ethyl]-amine] | 83
COc1cc(C)c(S(=O)(=O)N2CCCC(Oc3ccnc(N(C)CCCN4CCC(c5ccccc5)(N(C)C)CC4)n3)C2)c(C)c1 (stereo not shown) [H_CC-073, 3-(4-dimethylamino-4-phenyl-piperidin-1-yl)-propyl-[4-[1-[(4-methoxy-2,6-dimethyl-phenyl)sulfonyl]-piperidin-3-yl]oxy-pyrimidin-2-yl]-methyl-amine] | 55
